Data reported in patent US8192962B2, “Processes for detecting toxic substances” (Daikin Industries, Ltd., priority 2001, dated 2012).

System: Genes belonging to other category
Assay: DNA chip mRNA expression in yeast, genes belonging to other category (Table 9)
Format: cell-based, Saccharomyces cerevisiae S288C
In short: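 Expression change after 2 h toxicant exposure (growth-inhibiting, sub-lethal) of log-phase S. cerevisiae S288C at 25° C. Oligo-dT-purified mRNA was labeled with Cy3-dUTP or Cy5-dUTP and hybridized >12 h at 65° C. to a genome-wide chip; ratio of scanned fluorescence to control.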

O=[N+]([O-])c1cc[n+]([O-])c2ccccc12 [(5), 4-nitroquinolin-N-oxide]
The level of expressed mRNA in the presence of chemical substance/The level of expressed mRNA in the absence of chemical substance (yeast gene YHR169W): 1.1
The level of expressed mRNA in the presence of chemical substance/The level of expressed mRNA in the absence of chemical substance (yeast gene YHR185C): 1.4
The level of expressed mRNA in the presence of chemical substance/The level of expressed mRNA in the absence of chemical substance (yeast gene YHR195W): 1.5
The level of expressed mRNA in the presence of chemical substance/The level of expressed mRNA in the absence of chemical substance (yeast gene YIL010W): 1.2
The level of expressed mRNA in the presence of chemical substance/The level of expressed mRNA in the absence of chemical substance (yeast gene YIL076W): 1.8
The level of expressed mRNA in the presence of chemical substance/The level of expressed mRNA in the absence of chemical substance (yeast gene YIL123W): 0.6
The level of expressed mRNA in the presence of chemical substance/The level of expressed mRNA in the absence of chemical substance (yeast gene YIL140W): 0.8
The level of expressed mRNA in the presence of chemical substance/The level of expressed mRNA in the absence of chemical substance (yeast gene YJL035C): 1.4
The level of expressed mRNA in the presence of chemical substance/The level of expressed mRNA in the absence of chemical substance (yeast gene YJL053W): 1.1
The level of expressed mRNA in the presence of chemical substance/The level of expressed mRNA in the absence of chemical substance (yeast gene YJL073W): 1.2
The level of expressed mRNA in the presence of chemical substance/The level of expressed mRNA in the absence of chemical substance (yeast gene YJL089W): 1.1
The level of expressed mRNA in the presence of chemical substance/The level of expressed mRNA in the absence of chemical substance (yeast gene YJL116C): 1.3
The level of expressed mRNA in the presence of chemical substance/The level of expressed mRNA in the absence of chemical substance (yeast gene YJL164C): 1.1
The level of expressed mRNA in the presence of chemical substance/The level of expressed mRNA in the absence of chemical substance (yeast gene YJL210W): 0.6
The level of expressed mRNA in the presence of chemical substance/The level of expressed mRNA in the absence of chemical substance (yeast gene YJR004C): 1.1
The level of expressed mRNA in the presence of chemical substance/The level of expressed mRNA in the absence of chemical substance (yeast gene YJR086W): 1.3
The level of expressed mRNA in the presence of chemical substance/The level of expressed mRNA in the absence of chemical substance (yeast gene YJR117W): 1.2
The level of expressed mRNA in the presence of chemical substance/The level of expressed mRNA in the absence of chemical substance (yeast gene YKL007W): 1.0
The level of expressed mRNA in the presence of chemical substance/The level of expressed mRNA in the absence of chemical substance (yeast gene YKL008C): 0.9
The level of expressed mRNA in the presence of chemical substance/The level of expressed mRNA in the absence of chemical substance (yeast gene YKL013C): 1.9
The level of expressed mRNA in the presence of chemical substance/The level of expressed mRNA in the absence of chemical substance (yeast gene YKL039W): 0.7
The level of expressed mRNA in the presence of chemical substance/The level of expressed mRNA in the absence of chemical substance (yeast gene YKL041W): 1.3
The level of expressed mRNA in the presence of chemical substance/The level of expressed mRNA in the absence of chemical substance (yeast gene YKL096W): 0.6
The level of expressed mRNA in the presence of chemical substance/The level of expressed mRNA in the absence of chemical substance (yeast gene YKL117W): 1.8
The level of expressed mRNA in the presence of chemical substance/The level of expressed mRNA in the absence of chemical substance (yeast gene YKL165C): 0.9
The level of expressed mRNA in the presence of chemical substance/The level of expressed mRNA in the absence of chemical substance (yeast gene YKL193C): 1.1
The level of expressed mRNA in the presence of chemical substance/The level of expressed mRNA in the absence of chemical substance (yeast gene YKR076W): 1.0
The level of expressed mRNA in the presence of chemical substance/The level of expressed mRNA in the absence of chemical substance (yeast gene YLR120C): 1.1
The level of expressed mRNA in the presence of chemical substance/The level of expressed mRNA in the absence of chemical substance (yeast gene YLR136C): 1.6
The level of expressed mRNA in the presence of chemical substance/The level of expressed mRNA in the absence of chemical substance (yeast gene YLR178C): 1.0
The level of expressed mRNA in the presence of chemical substance/The level of expressed mRNA in the absence of chemical substance (yeast gene YLR250W): 1.4
The level of expressed mRNA in the presence of chemical substance/The level of expressed mRNA in the absence of chemical substance (yeast gene YLR327C): 1.3
The level of expressed mRNA in the presence of chemical substance/The level of expressed mRNA in the absence of chemical substance (yeast gene YLR356W): 1.1
The level of expressed mRNA in the presence of chemical substance/The level of expressed mRNA in the absence of chemical substance (yeast gene YLR362W): 1.5
The level of expressed mRNA in the presence of chemical substance/The level of expressed mRNA in the absence of chemical substance (yeast gene YLR391W): 1.2
The level of expressed mRNA in the presence of chemical substance/The level of expressed mRNA in the absence of chemical substance (yeast gene YLR429W): 1.4
The level of expressed mRNA in the presence of chemical substance/The level of expressed mRNA in the absence of chemical substance (yeast gene YMR004W): 1.0
The level of expressed mRNA in the presence of chemical substance/The level of expressed mRNA in the absence of chemical substance (yeast gene YMR094W): 0.9
The level of expressed mRNA in the presence of chemical substance/The level of expressed mRNA in the absence of chemical substance (yeast gene YMR104C): 0.7
The level of expressed mRNA in the presence of chemical substance/The level of expressed mRNA in the absence of chemical substance (yeast gene YMR219W): 1.6
The level of expressed mRNA in the presence of chemical substance/The level of expressed mRNA in the absence of chemical substance (yeast gene YMR226C): 0.9
The level of expressed mRNA in the presence of chemical substance/The level of expressed mRNA in the absence of chemical substance (yeast gene YMR238W): 1.5
The level of expressed mRNA in the presence of chemical substance/The level of expressed mRNA in the absence of chemical substance (yeast gene YMR275C): 0.7
The level of expressed mRNA in the presence of chemical substance/The level of expressed mRNA in the absence of chemical substance (yeast gene YMR276W): 1.3
The level of expressed mRNA in the presence of chemical substance/The level of expressed mRNA in the absence of chemical substance (yeast gene YMR297W): 0.6
The level of expressed mRNA in the presence of chemical substance/The level of expressed mRNA in the absence of chemical substance (yeast gene YNL006W): 0.9
The level of expressed mRNA in the presence of chemical substance/The level of expressed mRNA in the absence of chemical substance (yeast gene YNL007C): 1.2
The level of expressed mRNA in the presence of chemical substance/The level of expressed mRNA in the absence of chemical substance (yeast gene YNL093W): 1.2
The level of expressed mRNA in the presence of chemical substance/The level of expressed mRNA in the absence of chemical substance (yeast gene YNL333W): 1.5
The level of expressed mRNA in the presence of chemical substance/The level of expressed mRNA in the absence of chemical substance (yeast gene YNR010W): 1.8
The level of expressed mRNA in the presence of chemical substance/The level of expressed mRNA in the absence of chemical substance (yeast gene YNR069C): 1.4
The level of expressed mRNA in the presence of chemical substance/The level of expressed mRNA in the absence of chemical substance (yeast gene YOL013C): 0.7
The level of expressed mRNA in the presence of chemical substance/The level of expressed mRNA in the absence of chemical substance (yeast gene YOL109W): 1.0
The level of expressed mRNA in the presence of chemical substance/The level of expressed mRNA in the absence of chemical substance (yeast gene YOL164W): 1.6
The level of expressed mRNA in the presence of chemical substance/The level of expressed mRNA in the absence of chemical substance (yeast gene YOR036W): 1.1
The level of expressed mRNA in the presence of chemical substance/The level of expressed mRNA in the absence of chemical substance (yeast gene YOR117W): 1.2
The level of expressed mRNA in the presence of chemical substance/The level of expressed mRNA in the absence of chemical substance (yeast gene YOR124C): 1.1
The level of expressed mRNA in the presence of chemical substance/The level of expressed mRNA in the absence of chemical substance (yeast gene YOR132W): 1.1
The level of expressed mRNA in the presence of chemical substance/The level of expressed mRNA in the absence of chemical substance (yeast gene YOR157C): 0.7
The level of expressed mRNA in the presence of chemical substance/The level of expressed mRNA in the absence of chemical substance (yeast gene YOR181W): 0.7
The level of expressed mRNA in the presence of chemical substance/The level of expressed mRNA in the absence of chemical substance (yeast gene YOR185C): 1.2
The level of expressed mRNA in the presence of chemical substance/The level of expressed mRNA in the absence of chemical substance (yeast gene YOR198C): 0.8
The level of expressed mRNA in the presence of chemical substance/The level of expressed mRNA in the absence of chemical substance (yeast gene YOR259C): 2.0
The level of expressed mRNA in the presence of chemical substance/The level of expressed mRNA in the absence of chemical substance (yeast gene YOR261C): 1.5
The level of expressed mRNA in the presence of chemical substance/The level of expressed mRNA in the absence of chemical substance (yeast gene YOR288C): 1.1
The level of expressed mRNA in the presence of chemical substance/The level of expressed mRNA in the absence of chemical substance (yeast gene YOR327C): 1.0
The level of expressed mRNA in the presence of chemical substance/The level of expressed mRNA in the absence of chemical substance (yeast gene YOR355W): 1.0
The level of expressed mRNA in the presence of chemical substance/The level of expressed mRNA in the absence of chemical substance (yeast gene YOR383C): 0.9
The level of expressed mRNA in the presence of chemical substance/The level of expressed mRNA in the absence of chemical substance (yeast gene YPL010W): 1.4
The level of expressed mRNA in the presence of chemical substance/The level of expressed mRNA in the absence of chemical substance (yeast gene YPL089C): 1.4
The level of expressed mRNA in the presence of chemical substance/The level of expressed mRNA in the absence of chemical substance (yeast gene YPL109C): 1.2
The level of expressed mRNA in the presence of chemical substance/The level of expressed mRNA in the absence of chemical substance (yeast gene YPL149W): 0.8
The level of expressed mRNA in the presence of chemical substance/The level of expressed mRNA in the absence of chemical substance (yeast gene YPL154C): 1.2
The level of expressed mRNA in the presence of chemical substance/The level of expressed mRNA in the absence of chemical substance (yeast gene YPR080W): 1.4
The level of expressed mRNA in the presence of chemical substance/The level of expressed mRNA in the absence of chemical substance (yeast gene YPR103W): 1.7
The level of expressed mRNA in the presence of chemical substance/The level of expressed mRNA in the absence of chemical substance (yeast gene YPR108W): 1.3
